From the supplement of paper PMC7796163
± gives the uncertainty stated by the source.

Assays:
Assay in all cases: CYP enzyme activity (probe substrate metabolite formation) fold change vs solvent control; higher = stronger induction of CYP activity
Conditions in all cases: HepaRG
CYP3A4 = CYP3A4 (UniProt P08684)
Method: (§1)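 Differentiated HepaRG cells were treated with 1, 5 or 10 µM of each PAH (0.5% DMSO) for 12, 24 or 48 h, then incubated for 3 h at 37 °C with a cocktail of isoform-specific CYP substrates (phenacetin for CYP1A2, bupropion for CYP2B6, amodiaquine for CYP2C8, tolbutamide for CYP2C9, mephenytoin for CYP2C19, propafenone for CYP2D6, atorvastatin for CYP3A4). Metabolite formation was quantified by LC-MS as a measure of CYP activity and reported as fold change over solvent control (mean ± SD, n=3). Values below the LLOQ were set to half the LLOQ.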

CYP2D6 = CYP2D6 (UniProt P10635)
Chain of CYP2D6 (P10635 whole entry): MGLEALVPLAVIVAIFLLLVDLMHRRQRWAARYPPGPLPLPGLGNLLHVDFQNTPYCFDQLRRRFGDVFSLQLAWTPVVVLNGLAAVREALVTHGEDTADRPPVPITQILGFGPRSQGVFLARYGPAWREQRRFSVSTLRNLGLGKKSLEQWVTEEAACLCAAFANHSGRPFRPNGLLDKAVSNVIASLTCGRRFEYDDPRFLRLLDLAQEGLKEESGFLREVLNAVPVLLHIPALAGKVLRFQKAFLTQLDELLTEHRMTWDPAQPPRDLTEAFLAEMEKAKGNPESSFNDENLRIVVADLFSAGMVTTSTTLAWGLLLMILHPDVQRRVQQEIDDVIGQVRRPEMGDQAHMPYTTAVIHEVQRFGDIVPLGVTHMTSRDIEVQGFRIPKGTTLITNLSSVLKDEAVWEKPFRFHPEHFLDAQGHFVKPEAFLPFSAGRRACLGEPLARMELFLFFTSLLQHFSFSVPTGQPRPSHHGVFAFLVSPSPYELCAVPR
Method: as §1

CYP2C8 = biological target: T1, CYP2C8 (UniProt P10632)
T1 sequence (whole entry): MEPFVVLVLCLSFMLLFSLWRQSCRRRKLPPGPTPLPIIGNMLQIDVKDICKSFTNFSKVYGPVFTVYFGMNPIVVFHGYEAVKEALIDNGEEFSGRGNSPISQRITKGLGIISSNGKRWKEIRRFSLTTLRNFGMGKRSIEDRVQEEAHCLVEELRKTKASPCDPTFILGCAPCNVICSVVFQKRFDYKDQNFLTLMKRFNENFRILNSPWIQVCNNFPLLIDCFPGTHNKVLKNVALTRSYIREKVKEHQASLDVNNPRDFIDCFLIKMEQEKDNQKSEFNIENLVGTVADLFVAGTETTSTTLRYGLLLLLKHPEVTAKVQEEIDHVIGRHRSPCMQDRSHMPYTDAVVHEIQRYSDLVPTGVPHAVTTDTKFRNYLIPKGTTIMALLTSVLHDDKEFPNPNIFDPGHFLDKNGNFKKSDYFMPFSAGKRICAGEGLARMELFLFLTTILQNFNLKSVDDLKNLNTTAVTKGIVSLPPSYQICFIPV
Method: as §1

CYP2B6 = biological target: T2, CYP2B6 (UniProt P20813)
T2 sequence (whole entry): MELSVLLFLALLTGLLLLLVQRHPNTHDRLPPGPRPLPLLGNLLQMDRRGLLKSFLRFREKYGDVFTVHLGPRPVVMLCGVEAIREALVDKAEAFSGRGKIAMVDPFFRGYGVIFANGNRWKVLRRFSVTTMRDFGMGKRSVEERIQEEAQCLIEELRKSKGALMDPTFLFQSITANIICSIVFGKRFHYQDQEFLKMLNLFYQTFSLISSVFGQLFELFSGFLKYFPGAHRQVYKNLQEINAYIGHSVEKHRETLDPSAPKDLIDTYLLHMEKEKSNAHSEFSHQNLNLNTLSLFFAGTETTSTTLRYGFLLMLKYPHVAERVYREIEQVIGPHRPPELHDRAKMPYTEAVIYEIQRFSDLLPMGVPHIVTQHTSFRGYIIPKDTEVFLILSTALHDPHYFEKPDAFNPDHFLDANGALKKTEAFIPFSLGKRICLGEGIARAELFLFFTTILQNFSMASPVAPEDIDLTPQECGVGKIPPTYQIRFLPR
Method: as §1

CYP2C19 = CYP2C19 (UniProt P33261)
Chain of CYP2C19 (P33261 whole entry): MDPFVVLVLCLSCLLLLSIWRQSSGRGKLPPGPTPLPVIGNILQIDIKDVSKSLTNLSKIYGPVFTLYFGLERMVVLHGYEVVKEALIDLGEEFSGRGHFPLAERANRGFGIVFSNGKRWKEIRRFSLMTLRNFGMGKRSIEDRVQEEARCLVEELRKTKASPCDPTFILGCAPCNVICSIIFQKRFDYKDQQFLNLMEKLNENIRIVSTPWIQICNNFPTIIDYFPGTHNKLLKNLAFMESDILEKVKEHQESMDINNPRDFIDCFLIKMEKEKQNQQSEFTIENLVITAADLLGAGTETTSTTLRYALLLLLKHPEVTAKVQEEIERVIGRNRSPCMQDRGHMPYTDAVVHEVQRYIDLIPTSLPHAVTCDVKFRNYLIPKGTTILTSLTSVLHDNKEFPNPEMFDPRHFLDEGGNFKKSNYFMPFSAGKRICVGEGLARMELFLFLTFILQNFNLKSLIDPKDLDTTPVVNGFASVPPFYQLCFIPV
Method: as §1

CYP1A2 = biological target: T3, CYP1A2 (UniProt P05177)
T3 sequence (whole entry): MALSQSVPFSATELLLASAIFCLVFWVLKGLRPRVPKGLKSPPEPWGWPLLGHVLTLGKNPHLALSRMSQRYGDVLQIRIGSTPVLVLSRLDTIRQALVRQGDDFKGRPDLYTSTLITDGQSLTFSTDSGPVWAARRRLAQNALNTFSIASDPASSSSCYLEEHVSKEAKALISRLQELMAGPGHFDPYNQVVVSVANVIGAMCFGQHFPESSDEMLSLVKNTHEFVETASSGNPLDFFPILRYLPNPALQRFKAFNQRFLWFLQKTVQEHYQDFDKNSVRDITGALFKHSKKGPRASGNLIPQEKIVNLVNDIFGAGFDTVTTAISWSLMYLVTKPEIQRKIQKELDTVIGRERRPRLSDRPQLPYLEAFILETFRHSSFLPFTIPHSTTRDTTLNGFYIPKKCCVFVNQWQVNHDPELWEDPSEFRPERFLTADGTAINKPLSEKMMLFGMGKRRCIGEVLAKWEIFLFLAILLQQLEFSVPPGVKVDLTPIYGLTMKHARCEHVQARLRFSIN
Method: as §1

CYP2C9 = CYP2C9 (UniProt P11712)
Chain of CYP2C9 (P11712 whole entry): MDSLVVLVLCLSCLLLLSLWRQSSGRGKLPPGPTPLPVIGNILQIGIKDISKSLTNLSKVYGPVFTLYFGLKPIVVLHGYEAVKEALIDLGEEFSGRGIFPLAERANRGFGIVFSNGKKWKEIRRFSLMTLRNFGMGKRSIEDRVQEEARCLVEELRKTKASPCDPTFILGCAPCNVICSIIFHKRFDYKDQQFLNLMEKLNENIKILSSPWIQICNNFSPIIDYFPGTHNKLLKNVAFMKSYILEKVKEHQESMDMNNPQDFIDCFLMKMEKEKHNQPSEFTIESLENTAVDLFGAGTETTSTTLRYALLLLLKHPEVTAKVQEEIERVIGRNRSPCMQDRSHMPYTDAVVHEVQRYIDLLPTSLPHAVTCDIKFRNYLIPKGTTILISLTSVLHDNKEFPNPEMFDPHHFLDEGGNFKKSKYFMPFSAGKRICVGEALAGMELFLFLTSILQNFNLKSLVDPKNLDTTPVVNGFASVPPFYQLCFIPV
Method: as §1

Chain of CYP3A4 (P08684 whole entry, canonical isoform): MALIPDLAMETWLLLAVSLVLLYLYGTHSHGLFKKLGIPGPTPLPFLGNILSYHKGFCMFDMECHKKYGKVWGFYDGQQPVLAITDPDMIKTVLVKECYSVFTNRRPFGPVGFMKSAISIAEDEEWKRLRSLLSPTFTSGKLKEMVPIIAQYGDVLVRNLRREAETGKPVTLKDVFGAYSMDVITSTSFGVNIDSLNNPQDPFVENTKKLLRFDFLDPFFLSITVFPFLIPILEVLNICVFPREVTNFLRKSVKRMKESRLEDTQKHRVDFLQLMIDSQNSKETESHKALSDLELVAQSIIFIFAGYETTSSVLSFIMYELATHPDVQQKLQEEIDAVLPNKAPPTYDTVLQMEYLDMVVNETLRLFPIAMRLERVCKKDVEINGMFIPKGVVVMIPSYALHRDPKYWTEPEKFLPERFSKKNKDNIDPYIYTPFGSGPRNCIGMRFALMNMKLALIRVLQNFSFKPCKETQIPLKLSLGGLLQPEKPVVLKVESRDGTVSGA

c1ccc2cc3c(cc2c1)-c1cccc2cccc-3c12 [benzo[k]fluoranthene]
CYP enzyme activity
Conditions | CYP1A2 | CYP2B6 | CYP2C8 | CYP2C9 | CYP2C19 | CYP2D6 | CYP3A4
1 µM, treatment time 12 h | 7.62 | 0.673 | 0.918 | 0.808 | 0.834 | 1.93 | 0.73
1 µM, treatment time 24 h | 15.3 | 0.763 | 0.793 | 0.744 | 0.702 | 1.9 | 0.633
1 µM, treatment time 48 h | 25.3 | 0.806 | 0.812 | 0.704 | 0.832 | 1.36 | 0.544
5 µM, treatment time 12 h | 9.06 | 0.751 | 0.875 | 0.76 | 0.854 | 2.35 | 0.89
5 µM, treatment time 24 h | 17.8 | 0.806 | 0.682 | 0.67 | 0.723 | 2.71 | 0.676
5 µM, treatment time 48 h | 27.3 | 0.574 | 0.278 | 0.396 | 0.577 | 1.62 | 0.342
10 µM, treatment time 12 h | 5.83 | 0.741 | 0.759 | 0.725 | 0.76 | 2.05 | 0.93
10 µM, treatment time 24 h | 16.9 | 0.923 | 0.625 | 0.594 | 0.754 | 2.98 | 0.732
10 µM, treatment time 48 h | 17.5 | 0.446 | 0.164 | 0.312 | 0.455 | 1.49 | 0.283

c1ccc2c3c(ccc2c1)-c1cccc2cccc-3c12 [benzo[j]fluoranthene]
CYP enzyme activity
Conditions | CYP1A2 | CYP2B6 | CYP2C8 | CYP2C9 | CYP2C19 | CYP2D6 | CYP3A4
1 µM, treatment time 12 h | 3.57 | 1.02 | 0.921 | 0.852 | 0.86 | 1.28 | 0.809
1 µM, treatment time 24 h | 2.09 | 1.27 | 0.903 | 0.88 | 0.826 | 0.87 | 0.702
1 µM, treatment time 48 h | 1.1 | 0.856 | 0.974 | 0.835 | 0.948 | 0.759 | 0.666
5 µM, treatment time 12 h | 6.59 | 1.21 | 0.894 | 0.826 | 0.97 | 1.94 | 0.883
5 µM, treatment time 24 h | 12.1 | 2.01 | 0.779 | 0.844 | 0.9 | 1.61 | 0.728
5 µM, treatment time 48 h | 4.57 | 1.32 | 0.798 | 0.734 | 0.882 | 0.711 | 0.694
10 µM, treatment time 12 h | 1.21 | 1.04 | 0.785 | 0.731 | 0.84 | 1.13 | 0.916
10 µM, treatment time 24 h | 23 | 2.03 | 0.751 | 0.771 | 0.867 | 2.94 | 0.715
10 µM, treatment time 48 h | 9.96 | 1.83 | 0.688 | 0.75 | 0.914 | 0.838 | 0.636
